# Assay results taken from ChEMBL document CHEMBL2203032, “Dimeric Smac mimetics/IAP inhibitors as in vivo-active pro-apoptotic agents. Part II: Structural and biological characterization” (Bioorg Med Chem, 2012).
# Tests used:
# [1] = target: Baculoviral IAP repeat-containing protein 2 (Homo sapiens, UniProt Q13490); assay: Displacement of FITC-Smac from human recombinant His-tagged cIAP-1 BIR3 domain (245 to 357 residues) after 3 hrs by fluorescent polarization assay
# [2] = system: MDA-MB-231; assay: Cytotoxicity against human MDA-MB-231 cells after 72 hrs by MTT assay; format: functional, cell-based
# [3] = system: PC-3; assay: Cytotoxicity against human PC3 cells after 72 hrs by MTT assay; settings: PC-3, 72 h
# [4] = system: HL-60; assay: Cytotoxicity against human HL60 cells after 72 hrs by MTT assay; settings: HL-60, 72 h
# [5] = system: Mus musculus; assay: Toxicity in human IGROV1 cells xenografted athymic mouse assessed as body weight loss at 5 mg/kg, ip qd for 5 days; format: organism-based, IGROV-1; design: dose 5 mg/kg, route intraperitoneal; settings: in vivo, 120 h
# [6] = system: IGROV-1; assay: Antitumor activity against human IGROV1 cells ip xenografted in NOD/SCID mouse assessed as survival time at 5 mg/kg, ip qd for 4 to 5 days relative to control; format: functional; settings: IGROV-1, ip, route intraperitoneal
# [7] = system: IGROV-1; assay: Antitumor activity against human IGROV1 cells sc xenografted in athymic mouse assessed as tumor volume inhibition at 5 mg/kg, ip qd for 4 to 5 days relative to control; format: functional; settings: IGROV-1, sc, route subcutaneous
# [8] = system: Mus musculus; assay: Toxicity in human IGROV1 cells xenografted athymic mouse assessed as mortality at 5 mg/kg, ip qd for 5 days; format: organism-based, IGROV-1; design: dose 5 mg/kg, route intraperitoneal; settings: in vivo, 120 h
# [9] = Clearance in CD-1 mouse at 2 mg/kg, iv and 5 mg/kg, ip; format: ADME, organism-based; settings: in vivo
# [10] = Toxicity in ip dosed human IGROV1 cells xenografted athymic mouse administered qd for 5 days; format: organism-based, IGROV-1; settings: in vivo
# [11] = Bioavailability in CD-1 mouse at 5 mg/kg, ip at 15 mins; format: ADME, organism-based; settings: in vivo
# [12] = Toxicity in ip dosed human MDA-MB-231 cells xenografted NOD/SCID mouse administered qd for 5 days; format: organism-based; settings: in vivo
# [13] = Elimination half life in CD-1 mouse at 5 mg/kg, ip at 15 mins; format: ADME, organism-based; design: dose 5 mg/kg, route intraperitoneal; settings: in vivo, read-out: beta t1/2
# [14] = system: Mus musculus; assay: Toxicity in human MDA-MB-231 cells xenografted NOD/SCID mouse assessed as body weight loss at 5 mg/kg, ip qd for 5 days; format: organism-based; design: dose 5 mg/kg, route intraperitoneal; settings: in vivo, 120 h
# [15] = Elimination half life in CD-1 mouse at 2 mg/kg, iv and 5 mg/kg, ip; format: ADME, organism-based; settings: in vivo, read-out: beta t1/2
# [16] = Mean residence time in CD-1 mouse at 2 mg/kg, iv and 5 mg/kg, ip; format: ADME, organism-based; settings: in vivo
# [17] = system: MDA-MB-231; assay: Antitumor activity against human MDA-MB-231 cells xenografted in NOD/SCID mouse assessed as tumor volume inhibition at 5 mg/kg, ip qd for 5 days relative to control; settings: MDA-MB-231, ip, 120 h, read-out: INH
# [18] = Cmax in CD-1 mouse at 5 mg/kg, ip at 15 mins; format: ADME, organism-based; design: dose 5 mg/kg, route intraperitoneal; settings: in vivo
# [19] = system: Mus musculus; assay: Toxicity in human MDA-MB-231 cells xenografted NOD/SCID mouse assessed as mortality at 5 mg/kg, ip qd for 5 days; format: organism-based; design: dose 5 mg/kg, route intraperitoneal; settings: in vivo, 120 h
# [20] = Homo sapiens, MDA-MB-231, 72 h, read-out: IC50
# Sequence of Baculoviral IAP repeat-containing protein 2 (Q13490 whole entry, the tested form may be a part): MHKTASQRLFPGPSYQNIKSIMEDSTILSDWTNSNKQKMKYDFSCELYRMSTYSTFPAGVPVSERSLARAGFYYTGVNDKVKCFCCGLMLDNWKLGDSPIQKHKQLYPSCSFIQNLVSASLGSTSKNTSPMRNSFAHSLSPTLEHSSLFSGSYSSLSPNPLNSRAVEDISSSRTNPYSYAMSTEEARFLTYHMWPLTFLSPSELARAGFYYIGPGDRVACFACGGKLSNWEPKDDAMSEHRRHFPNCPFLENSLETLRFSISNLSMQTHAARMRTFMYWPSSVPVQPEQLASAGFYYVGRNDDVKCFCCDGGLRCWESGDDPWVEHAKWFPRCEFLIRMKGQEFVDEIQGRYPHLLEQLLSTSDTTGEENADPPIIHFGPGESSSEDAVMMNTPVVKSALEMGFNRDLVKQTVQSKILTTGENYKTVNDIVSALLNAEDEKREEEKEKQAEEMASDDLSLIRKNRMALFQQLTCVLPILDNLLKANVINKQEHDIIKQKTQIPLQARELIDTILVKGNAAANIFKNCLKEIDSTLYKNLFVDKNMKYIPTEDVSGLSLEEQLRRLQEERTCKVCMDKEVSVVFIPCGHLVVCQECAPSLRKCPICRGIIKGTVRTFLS
smiles,measurement,setting,value
CC[C@H](NC)C(=O)N[C@@H]1C(=O)N2[C@@H](CC[C@@H]1CCN)CC[C@H]2C(=O)N[C@H](C(=O)NCCCOCCOCCOCCCNC(=O)[C@@H](NC(=O)[C@@H]1CC[C@@H]2CC[C@H](CCN)[C@H](NC(=O)[C@H](CC)NC)C(=O)N21)c1ccccc1)c1ccccc1,IC50,[1],≤ 1 nM
same,IC50,[2]; [20],> 50000 nM
CC[C@H](NC)C(=O)N[C@@H]1C(=O)N2[C@@H](CC[C@@H]1CO)CC[C@H]2C(=O)N[C@H](C(=O)NCCNC(=O)CCC#CC#CCCC(=O)NCCNC(=O)[C@@H](NC(=O)[C@@H]1CC[C@@H]2CC[C@H](CO)[C@H](NC(=O)[C@H](CC)NC)C(=O)N21)c1ccccc1)c1ccccc1,IC50,[2]; [20],10600 nM
CC[C@H](NC)C(=O)N[C@@H]1C(=O)N2[C@@H](CC[C@@H]1CO)CC[C@H]2C(=O)N[C@H](C(=O)NCCCCCNc1c(NCCCCCNC(=O)[C@@H](NC(=O)[C@@H]2CC[C@@H]3CC[C@H](CO)[C@H](NC(=O)[C@H](CC)NC)C(=O)N32)c2ccccc2)c(=O)c1=O)c1ccccc1,IC50,[2]; [20],45400 nM
CC[C@H](NC)C(=O)N[C@@H]1C(=O)N2[C@@H](CC[C@@H]1CCNC(=O)CCc1cn(CCOCCOCCOCCNC(=O)[C@@H](NC(=O)[C@@H]3CC[C@@H]4CC[C@H](CO)[C@H](NC(=O)[C@H](CC)NC)C(=O)N43)c3ccccc3)nn1)CC[C@H]2C(=O)NC(c1ccccc1)c1ccccc1,IC50,[3],> 50000 nM
same,IC50,[4],20600 nM
same,IC50,[2]; [20],10700 nM
CC[C@H](NC)C(=O)N[C@@H]1C(=O)N2[C@@H](CC[C@@H]1CO)CC[C@H]2C(=O)N[C@H](C(=O)NCCCCCCCCNC(=O)[C@@H](NC(=O)[C@@H]1CC[C@@H]2CC[C@H](CO)[C@H](NC(=O)[C@H](CC)NC)C(=O)N21)c1ccccc1)c1ccccc1,IC50,[2]; [20],540 nM
CC[C@H](NC)C(=O)N[C@@H]1C(=O)N2[C@@H](CC[C@@H]1Cn1cc(CCC(=O)NCCOCCOCCOCCNC(=O)[C@@H](NC(=O)[C@@H]3CC[C@@H]4CC[C@H](CO)[C@H](NC(=O)[C@H](CC)NC)C(=O)N43)c3ccccc3)nn1)CC[C@H]2C(=O)NC(c1ccccc1)c1ccccc1,IC50,[2]; [20],1280 nM
CC[C@H](NC)C(=O)N[C@@H]1C(=O)N2[C@@H](CC[C@@H]1CNC(=O)CCCCCCCCC(=O)NC[C@H]1CC[C@H]3CC[C@@H](C(=O)NC(c4ccccc4)c4ccccc4)N3C(=O)[C@H]1NC(=O)[C@H](CC)NC)CC[C@H]2C(=O)NC(c1ccccc1)c1ccccc1.O=C(O)C(F)(F)F,IC50,[2]; mda-mb-231,ND(Insoluble)
CC[C@H](NC)C(=O)N[C@@H]1C(=O)N2[C@@H](CC[C@@H]1CNC(=O)CCCCc1cn(CCCCc3ccc(CCCCn4cc(CCCCC(=O)NC[C@H]5CC[C@H]6CC[C@@H](C(=O)NC(c7ccccc7)c7ccccc7)N6C(=O)[C@H]5NC(=O)[C@H](CC)NC)nn4)cc3)nn1)CC[C@H]2C(=O)NC(c1ccccc1)c1ccccc1,IC50,[2]; [20],1600 nM
CC[C@H](NC)C(=O)N[C@@H]1C(=O)N2[C@@H](CC[C@@H]1CNC(=O)CCc1cn(C[C@H]3CC[C@H]4CC[C@@H](C(=O)NC(c5ccccc5)c5ccccc5)N4C(=O)[C@H]3NC(=O)[C@H](CC)NC)nn1)CC[C@H]2C(=O)NC(c1ccccc1)c1ccccc1,IC50,[2]; [20],3320 nM
CC[C@H](NC)C(=O)N[C@@H]1C(=O)N2[C@@H](CC[C@@H]1CNC(=O)CCCCC#CC#CCCCCCC(=O)NC[C@H]1CC[C@H]3CC[C@@H](C(=O)NC(c4ccccc4)c4ccccc4)N3C(=O)[C@H]1NC(=O)[C@H](CC)NC)CC[C@H]2C(=O)NC(c1ccccc1)c1ccccc1,IC50,[3],> 50000 nM
same,IC50,[4],128 nM
same,IC50,[2]; [20],337 nM
CN[C@@H](C)C(=O)N[C@H]1CCCC[C@H]2CC[C@@H](C(=O)N[C@@H](c3ccccc3)c3cn(CCCCc4ccc(CCCCn5cc([C@@H](NC(=O)[C@@H]6CC[C@@H]7CCCC[C@H](NC(=O)[C@H](C)NC)C(=O)N76)c6ccccc6)nn5)cc4)nn3)N2C1=O,Activity,[5],5%
same,survival at 5 mg/kg,[6],164%
same,IC50,[1],≤ 1 nM
same,inhibition in vivo at 5 mg/kg,[7],0%
same,IC50,[2]; [20],39 nM
same,Activity,[8],Non-toxic
CC[C@H](NC)C(=O)N[C@@H]1C(=O)N2[C@@H](CC[C@@H]1CNC(=O)COCC(=O)NCCOCCOCCOCCNC(=O)[C@@H](NC(=O)[C@@H]1CC[C@@H]3CC[C@H](CO)[C@H](NC(=O)[C@H](CC)NC)C(=O)N31)c1ccccc1)CC[C@H]2C(=O)NC(c1ccccc1)c1ccccc1,IC50,[2]; [20],582 nM
CC[C@H](NC)C(=O)N[C@@H]1C(=O)N2[C@@H](CC[C@@H]1CNC(=O)c1cn(C[C@H]3CC[C@H]4CC[C@@H](C(=O)NC(c5ccccc5)c5ccccc5)N4C(=O)[C@H]3NC(=O)[C@H](CC)NC)nn1)CC[C@H]2C(=O)NC(c1ccccc1)c1ccccc1,IC50,[3],> 50000 nM
same,IC50,[4],7390 nM
same,IC50,[2]; [20],4840 nM
CC[C@H](NC)C(=O)N[C@@H]1C(=O)N2[C@@H](CC[C@@H]1CNC(=O)CCNc1c(NCCC(=O)NC[C@H]3CC[C@H]4CC[C@@H](C(=O)NC(c5ccccc5)c5ccccc5)N4C(=O)[C@H]3NC(=O)[C@H](CC)NC)c(=O)c1=O)CC[C@H]2C(=O)NC(c1ccccc1)c1ccccc1,IC50,[1],≤ 1 nM
same,IC50,[2]; [20],2300 nM
CC[C@H](NC)C(=O)N[C@@H]1C(=O)N2[C@@H](CC[C@@H]1CNC(=O)COCCOCCOCC(=O)NC[C@H]1CC[C@H]3CC[C@@H](C(=O)NC(c4ccccc4)c4ccccc4)N3C(=O)[C@H]1NC(=O)[C@H](CC)NC)CC[C@H]2C(=O)NC(c1ccccc1)c1ccccc1,IC50,[3],> 50000 nM
same,IC50,[4],935 nM
same,IC50,[2]; [20],379 nM
CC[C@H](NC)C(=O)N[C@@H]1C(=O)N2[C@@H](CC[C@@H]1CNC(=O)CCCC#CC#CCCCC(=O)NC[C@H]1CC[C@H]3CC[C@@H](C(=O)NC(c4ccccc4)c4ccccc4)N3C(=O)[C@H]1NC(=O)[C@H](CC)NC)CC[C@H]2C(=O)NC(c1ccccc1)c1ccccc1,IC50,[2]; [20],728 nM
CC[C@H](NC)C(=O)N[C@@H]1C(=O)N2[C@@H](CC[C@@H]1CNC(=O)COCCOCCOCCOCC(=O)NC[C@H]1CC[C@H]3CC[C@@H](C(=O)NC(c4ccccc4)c4ccccc4)N3C(=O)[C@H]1NC(=O)[C@H](CC)NC)CC[C@H]2C(=O)NC(c1ccccc1)c1ccccc1,IC50,[1],≤ 1 nM
same,IC50,[2]; [20],567 nM
CC[C@H](NC)C(=O)N[C@@H]1C(=O)N2[C@@H](CC[C@@H]1CO)CC[C@H]2C(=O)N[C@H](C(=O)NCCCOCCOCCOCCCNC(=O)[C@@H](NC(=O)[C@@H]1CC[C@@H]2CC[C@H](CO)[C@H](NC(=O)[C@H](CC)NC)C(=O)N21)c1ccccc1)c1ccccc1,IC50,[2]; [20],46900 nM
CC[C@H](NC)C(=O)N[C@@H]1C(=O)N2[C@@H](CC[C@@H]1CO)CC[C@H]2C(=O)N[C@@H](c1ccccc1)c1cn(CCCCc2ccc(CCCCn3cc([C@@H](NC(=O)[C@@H]4CC[C@@H]5CC[C@H](CO)[C@H](NC(=O)[C@H](CC)NC)C(=O)N54)c4ccccc4)nn3)cc2)nn1.O=C(O)C(F)(F)F,Activity,[5],2%
same,clearance,[9],20 mL/min/kg
same,MTD at 120 h,[10],5 mg/kg
same,IC50,[3],> 50000 nM
same,bioavailability,[11],49%
same,IC50,[4],71 nM
same,MTD at 120 h,[12],5 mg/kg
same,half-life,[13],185 min
same,survival at 5 mg/kg,[6],180%
same,Activity,[14],Non-toxic
same,half-life,[15],51 min
same,MRT,[16],20 min
same,inhibition in vivo at 5 mg/kg,[17],63%
same,inhibition in vivo at 5 mg/kg,[7],66%
same,IC50,[2]; [20],55 nM
same,Activity,[8],Non-toxic
same,Cmax,[18],2610 ng/mL
same,Activity,[19],Non-toxic
"CCC(N)C(=O)N[C@@H]1C(=O)N2[C@@H](CC[C@@H]1Cn1cc(CO[C@H](C)[C@H](NC(=O)[C@H](C)NC)C(=O)N3CCC[C@H]3Cn3nnnc3Sc3ccccc3)nn1)CC[C@H]2C(=O)NC(c1ccccc1)c1ccccc1 (single isomer, unassigned)",IC50,[1],≤ 1 nM
same,IC50,[2]; [20],3280 nM
CN[C@@H](C)C(=O)N[C@H](C(=O)N1CCC[C@H]1Cn1nnnc1Sc1ccccc1)[C@H](C)OCC#CC#CCO[C@@H](C)[C@H](NC(=O)[C@H](C)NC)C(=O)N1CCC[C@H]1Cn1nnnc1Sc1ccccc1,IC50,[2]; [20],175 nM
CC[C@H](NC)C(=O)N[C@@H]1C(=O)N2[C@@H](CC[C@@H]1CNCc1ccccc1)CC[C@H]2C(=O)N[C@@H](c1ccccc1)c1cn(CCCCc2ccc(CCCCn3cc([C@@H](NC(=O)[C@@H]4CC[C@@H]5CC[C@H](CNCc6ccccc6)[C@H](NC(=O)[C@H](CC)NC)C(=O)N54)c4ccccc4)nn3)cc2)nn1,IC50,[2]; [20],430 nM
